Measurements reported in US7981903B2, “2-[2-{phenylamino}-1H-pyrrolo[2,3-D]pyrimidin-4-yl)amino] benzamide derivatives as IGF-1R inhibitors for the treatment of cancer” (GlaxoSmithKline LLC, priority 2007, dated 2011).
Read-outs that look alike come from different tables or passages of the source.

Assays:
human IR (hIR) = biological target: T1, human IR (hIR) (Homo sapiens, UniProt P06213); test: TR-FRET kinase assay of purified hIR; assay type: biochemical; settings: activated hIR 0.5 nM, 10 μM ATP, values given as pIC50 category
T1 construct: containing amino acid residues 979-1382 of human IR; made in house; host or cells: Sf9 cells (baculovirus), same process as hIGF1R

ALK [1] = biological target: T2, ALK (Homo sapiens, UniProt Q9UM73); test: ALK enzyme assay (HTRF); assay type: biochemical; settings: 0.25 nM ALK, 15.0 μM ATP, values given as pIC50 category
How it was run: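 Final compound range 0.00017 to 10 μM (twelve 1:3 dilutions). Kinase reaction with ATP and biotinylated synthetic peptide runs 120 min at 20° C, stopped with EDTA; phosphotyrosine detected by HTRF after 60 min. Inhibition referenced to DMSO (1%) and EDTA (0.1 M) controls, curve-fitted.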
Target sequence in this assay (Q9UM73 19-1620): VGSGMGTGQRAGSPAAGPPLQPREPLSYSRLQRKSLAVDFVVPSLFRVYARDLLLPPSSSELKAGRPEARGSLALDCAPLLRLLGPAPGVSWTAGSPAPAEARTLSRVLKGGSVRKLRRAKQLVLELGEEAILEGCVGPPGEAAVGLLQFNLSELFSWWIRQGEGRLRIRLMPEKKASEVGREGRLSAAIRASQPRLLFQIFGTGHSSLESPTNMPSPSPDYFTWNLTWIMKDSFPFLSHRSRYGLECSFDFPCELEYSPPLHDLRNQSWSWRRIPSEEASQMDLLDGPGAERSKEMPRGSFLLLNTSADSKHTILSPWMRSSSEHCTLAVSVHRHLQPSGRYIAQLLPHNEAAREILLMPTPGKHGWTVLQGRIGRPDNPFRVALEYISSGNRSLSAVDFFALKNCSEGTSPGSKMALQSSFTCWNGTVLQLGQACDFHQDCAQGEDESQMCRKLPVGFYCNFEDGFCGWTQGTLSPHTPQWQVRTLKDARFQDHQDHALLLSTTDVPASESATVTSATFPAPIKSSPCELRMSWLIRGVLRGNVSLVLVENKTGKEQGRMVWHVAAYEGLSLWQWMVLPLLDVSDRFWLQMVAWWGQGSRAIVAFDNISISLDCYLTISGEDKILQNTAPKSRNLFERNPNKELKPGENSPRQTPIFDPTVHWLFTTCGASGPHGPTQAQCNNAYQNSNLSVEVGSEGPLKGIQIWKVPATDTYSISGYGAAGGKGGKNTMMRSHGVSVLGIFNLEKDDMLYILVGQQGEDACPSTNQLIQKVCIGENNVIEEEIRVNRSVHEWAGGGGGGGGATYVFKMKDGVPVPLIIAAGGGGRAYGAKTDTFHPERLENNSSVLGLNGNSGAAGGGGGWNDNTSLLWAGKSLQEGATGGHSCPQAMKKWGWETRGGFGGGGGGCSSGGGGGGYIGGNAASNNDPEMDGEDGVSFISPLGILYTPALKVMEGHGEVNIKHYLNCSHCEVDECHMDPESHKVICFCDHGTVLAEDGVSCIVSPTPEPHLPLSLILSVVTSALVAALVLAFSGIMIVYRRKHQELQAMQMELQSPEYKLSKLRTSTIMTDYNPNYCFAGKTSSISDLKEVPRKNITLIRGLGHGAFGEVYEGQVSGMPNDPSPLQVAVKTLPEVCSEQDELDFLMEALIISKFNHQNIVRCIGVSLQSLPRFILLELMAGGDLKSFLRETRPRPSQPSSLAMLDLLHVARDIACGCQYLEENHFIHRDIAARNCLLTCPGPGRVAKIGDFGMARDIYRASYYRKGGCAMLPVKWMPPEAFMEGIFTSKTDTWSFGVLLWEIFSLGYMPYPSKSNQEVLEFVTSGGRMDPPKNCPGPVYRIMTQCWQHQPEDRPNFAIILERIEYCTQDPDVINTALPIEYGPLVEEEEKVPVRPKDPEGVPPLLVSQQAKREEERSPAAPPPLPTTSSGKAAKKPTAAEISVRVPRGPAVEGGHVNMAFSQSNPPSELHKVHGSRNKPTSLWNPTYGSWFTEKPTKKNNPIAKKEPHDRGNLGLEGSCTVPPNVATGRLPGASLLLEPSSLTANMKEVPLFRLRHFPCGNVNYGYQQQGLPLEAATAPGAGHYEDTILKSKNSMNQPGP

Colo205 = test: Inhibition of cell proliferation (CellTiter-Glo or InCell analyzer), Colo205; assay type: cell-based; settings: Homo sapiens, COLO 205, 72 h / 3 days, values given as IC50 category
How it was run: In one

NCI-H929 = test: Inhibition of cell proliferation (CellTiter-Glo or InCell analyzer), NCI-H929; assay type: cell-based; settings: Homo sapiens, 72 h / 3 days, values given as IC50 category
Method: Cell proliferation was measured by either CellTiter-Glo (measures cellular ATP level as a surrogate for total cell number) or by InCell analyzer (counts number of nuclei as a measure of cell number).
For CellTiter-Glo assay, exponentially growing cell lines of different tumor origins, cultured in appropriate media containing 10% fetal bovine serum at 37° C. in a 5% CO2 incubator, were plated at low density (less than 2000cells/well) in 96-well plates. Twenty four hours post-plating, cells were treated with different concentrations of test compounds ranging from 30 uM to 1.5 nM. Several wells were left untreated as a control. Seventy two hours post-treatment, cell numbers were determined using 50-100 ul per well of CellTiter-Glo (Promega #G7573). Plates were incubated at 37° C. for 30 minutes and the chemiluminescent signal was read on the Victor V or Envison 2100 reader.
For InCell Analyser assay, various cell lines of different tumor origins were grown to 70-80% confluency in appropriate culture media containing 10% fetal bovine serum at 37° C. in a 5% CO2 incubator. On day −1, cells were seeded at 2 densities in 384-well plates and incubated at 37° C. overnight. Stock compound plates were prepared in advance which contained dimethyl sulfoxide (DMSO) alone and a 9-point half-log decreasing dose range of the compound in DMSO. The compound plates were stored at −80° C. and each plate was only thawed once and used. On day 0, the main assay plates received compound or DMSO via a sonic delivery system (ECHO). The highest final concentration of compound of the dose range in the culture plates was 10 uM. These plates were cultured at 37° C. for 3 days. […] On day 3, the compound treated plates were stained and fixed to measure proliferation, apoptosis, and mitotic index using an InCelL1000 analyser. A nuclear stain was used to identify cells in the wells. By counting the number of nuclei, the proliferation index of compound treated groups were calculated as a percentage relative to the DMSO control, which was set to 100%. The IC50 values were calculated using model 205 in ExcelFit.
IC50 (nM) values for compounds of select examples were categorized by relative inhibition of cell proliferation.

[2] = biological target: T3, NIH-3T3 cells overexpressing human IGF-1R (Homo sapiens, UniProt P08069); test: IGF-1R cellular autophosphorylation (DELFIA); assay type: cell-based
T3 construct: expressed in transfected cells; host or cells: NIH-3T3 (mouse fibroblasts)
How it was run: (§1)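 Receptor autophosphorylation measured by DELFIA, capturing IGF-1R or IRβ and detecting with europium anti-pTyr, reported as percent of IGF-1- or insulin-stimulated signal. Compounds (30 uM to 1.5 nM) added 2 h before ligand, then 15 min stimulation (IGF-1 30 ng/ml or insulin 3 ug/ml).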

[3] = biological target: T4, NIH-3T3 cells overexpressing human IR (Homo sapiens, UniProt P06213); test: IR cellular autophosphorylation (DELFIA); assay type: cell-based; settings: 2 h compound, insulin 3 ug/ml for 15 minutes, IC50 category
T4 construct: expressed in transfected cells; host or cells: NIH-3T3 (mouse fibroblasts)
How it was run: as §1

ALCL cells [4] = settings: cited from earlier work
ALCL cells [5] = settings: cited from earlier work; remark: listed apart in the source
ALK [6] = biological target: T2, ALK; parameters: host or cells: ALCL cells; the other entry of the earlier key: NPM1 (P06748, Nucleophosmin); settings: cited from earlier work
human IGF1R (hIGF1R) = biological target: T5, human IGF1R (hIGF1R) (Homo sapiens, UniProt P08069); test: TR-FRET kinase assay of purified hIGF1R; assay type: biochemical; settings: activated hIGF1R 0.5 nM, 10 μM ATP, values given as pIC50 category, read-out: IGF-1R pIC50 (converted)
T5 construct: containing amino acid residues 957-1367 of human IGF1R; made in house; host or cells: Sf9 cells (baculovirus)
T5 sequence (P08069 957-1367): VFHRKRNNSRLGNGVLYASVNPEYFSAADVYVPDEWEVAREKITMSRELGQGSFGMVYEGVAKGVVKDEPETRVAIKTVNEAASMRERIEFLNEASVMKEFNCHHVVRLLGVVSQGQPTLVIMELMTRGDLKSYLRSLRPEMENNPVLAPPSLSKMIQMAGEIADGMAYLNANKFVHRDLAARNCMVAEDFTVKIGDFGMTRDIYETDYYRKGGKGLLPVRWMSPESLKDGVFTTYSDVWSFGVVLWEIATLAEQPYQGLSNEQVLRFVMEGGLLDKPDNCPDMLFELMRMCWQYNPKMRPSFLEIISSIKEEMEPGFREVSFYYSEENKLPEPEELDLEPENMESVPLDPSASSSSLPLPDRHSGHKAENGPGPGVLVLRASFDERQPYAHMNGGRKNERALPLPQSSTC

T1 sequence (P06213 979-1382): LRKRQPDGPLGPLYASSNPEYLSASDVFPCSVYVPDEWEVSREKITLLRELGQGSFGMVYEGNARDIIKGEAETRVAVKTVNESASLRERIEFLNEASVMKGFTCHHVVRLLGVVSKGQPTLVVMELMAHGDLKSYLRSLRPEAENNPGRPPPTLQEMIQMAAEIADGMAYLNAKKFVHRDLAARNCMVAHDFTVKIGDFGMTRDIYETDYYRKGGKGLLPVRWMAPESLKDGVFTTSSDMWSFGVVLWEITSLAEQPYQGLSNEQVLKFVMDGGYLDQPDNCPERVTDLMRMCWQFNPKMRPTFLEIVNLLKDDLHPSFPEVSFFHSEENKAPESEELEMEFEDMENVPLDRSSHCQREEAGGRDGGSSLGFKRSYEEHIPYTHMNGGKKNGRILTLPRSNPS
T4 sequence (P06213 28-1382): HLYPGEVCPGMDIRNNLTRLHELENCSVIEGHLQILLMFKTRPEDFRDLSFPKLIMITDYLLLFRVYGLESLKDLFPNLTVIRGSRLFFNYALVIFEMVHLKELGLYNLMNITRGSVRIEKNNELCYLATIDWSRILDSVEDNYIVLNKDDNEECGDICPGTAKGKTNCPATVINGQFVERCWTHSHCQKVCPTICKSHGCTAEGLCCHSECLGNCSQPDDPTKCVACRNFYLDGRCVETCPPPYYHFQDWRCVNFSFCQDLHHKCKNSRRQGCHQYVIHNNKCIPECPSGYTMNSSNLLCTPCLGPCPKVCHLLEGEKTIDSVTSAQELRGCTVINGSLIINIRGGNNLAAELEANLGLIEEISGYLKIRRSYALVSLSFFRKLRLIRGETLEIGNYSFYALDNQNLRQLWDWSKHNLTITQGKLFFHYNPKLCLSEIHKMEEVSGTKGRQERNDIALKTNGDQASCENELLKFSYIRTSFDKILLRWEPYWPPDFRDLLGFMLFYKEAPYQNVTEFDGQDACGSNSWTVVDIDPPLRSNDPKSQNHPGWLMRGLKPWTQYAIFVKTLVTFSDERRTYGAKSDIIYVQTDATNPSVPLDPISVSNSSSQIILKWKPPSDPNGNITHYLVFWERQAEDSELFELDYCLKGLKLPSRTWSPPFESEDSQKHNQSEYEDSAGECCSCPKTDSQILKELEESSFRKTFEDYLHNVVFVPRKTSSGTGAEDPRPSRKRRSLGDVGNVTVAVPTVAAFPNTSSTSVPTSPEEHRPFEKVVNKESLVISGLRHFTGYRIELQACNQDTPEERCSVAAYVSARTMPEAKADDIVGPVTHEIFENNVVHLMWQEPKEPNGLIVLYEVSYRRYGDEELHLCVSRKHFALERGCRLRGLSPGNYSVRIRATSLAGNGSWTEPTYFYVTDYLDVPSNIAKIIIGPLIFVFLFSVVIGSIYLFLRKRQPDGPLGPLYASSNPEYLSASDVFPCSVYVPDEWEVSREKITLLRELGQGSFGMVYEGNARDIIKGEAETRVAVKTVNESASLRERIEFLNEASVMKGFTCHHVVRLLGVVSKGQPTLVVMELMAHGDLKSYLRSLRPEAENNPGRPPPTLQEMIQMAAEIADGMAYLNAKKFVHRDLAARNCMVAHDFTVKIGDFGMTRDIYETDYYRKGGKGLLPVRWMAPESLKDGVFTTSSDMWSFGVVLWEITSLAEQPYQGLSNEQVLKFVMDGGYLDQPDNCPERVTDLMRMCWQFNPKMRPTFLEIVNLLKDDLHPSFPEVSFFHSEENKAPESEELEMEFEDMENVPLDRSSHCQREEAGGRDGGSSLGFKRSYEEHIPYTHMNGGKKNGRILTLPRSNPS
T3 sequence (P08069 31-1367): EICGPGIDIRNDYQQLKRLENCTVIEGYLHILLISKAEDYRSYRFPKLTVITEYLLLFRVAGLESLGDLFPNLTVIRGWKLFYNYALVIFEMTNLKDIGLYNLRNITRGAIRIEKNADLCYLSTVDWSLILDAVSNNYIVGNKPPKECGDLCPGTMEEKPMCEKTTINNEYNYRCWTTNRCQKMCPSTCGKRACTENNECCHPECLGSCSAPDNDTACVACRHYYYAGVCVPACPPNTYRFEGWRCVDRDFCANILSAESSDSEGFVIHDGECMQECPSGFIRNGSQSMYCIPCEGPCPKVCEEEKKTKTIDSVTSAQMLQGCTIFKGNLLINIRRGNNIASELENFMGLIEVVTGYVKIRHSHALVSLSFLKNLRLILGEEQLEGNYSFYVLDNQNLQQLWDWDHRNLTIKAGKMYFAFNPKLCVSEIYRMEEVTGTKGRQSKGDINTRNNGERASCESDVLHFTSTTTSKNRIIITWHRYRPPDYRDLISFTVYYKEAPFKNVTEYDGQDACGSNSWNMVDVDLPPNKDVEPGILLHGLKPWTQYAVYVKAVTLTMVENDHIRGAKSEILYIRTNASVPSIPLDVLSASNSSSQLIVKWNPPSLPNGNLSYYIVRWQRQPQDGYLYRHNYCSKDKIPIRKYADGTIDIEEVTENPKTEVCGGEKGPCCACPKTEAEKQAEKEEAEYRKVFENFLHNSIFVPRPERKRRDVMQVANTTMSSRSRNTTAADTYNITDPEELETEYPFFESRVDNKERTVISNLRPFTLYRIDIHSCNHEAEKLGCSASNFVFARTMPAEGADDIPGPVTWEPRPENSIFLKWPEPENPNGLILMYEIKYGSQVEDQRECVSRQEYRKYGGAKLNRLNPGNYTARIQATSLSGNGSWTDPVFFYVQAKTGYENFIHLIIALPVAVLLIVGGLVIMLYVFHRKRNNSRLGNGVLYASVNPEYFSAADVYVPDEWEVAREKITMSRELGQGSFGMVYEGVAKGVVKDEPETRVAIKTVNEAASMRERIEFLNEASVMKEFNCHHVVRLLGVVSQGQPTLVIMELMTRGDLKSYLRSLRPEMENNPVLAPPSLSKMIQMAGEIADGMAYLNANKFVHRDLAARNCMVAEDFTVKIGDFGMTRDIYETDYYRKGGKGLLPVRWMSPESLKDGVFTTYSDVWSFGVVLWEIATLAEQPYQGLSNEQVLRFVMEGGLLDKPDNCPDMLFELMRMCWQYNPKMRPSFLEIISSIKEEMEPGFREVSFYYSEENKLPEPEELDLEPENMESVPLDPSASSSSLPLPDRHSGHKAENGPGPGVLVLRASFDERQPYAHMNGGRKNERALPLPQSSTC

| Compound | IC50 (human IR (hIR)) [nM] | IC50 (ALK [1]) [nM] | IC50 (Colo205) [nM] | IC50 (NCI-H929) [nM] | IC50 [2] [nM] | IC50 [3] [nM] | inhibition of the growth of ALCL cells (ALCL cells [4]; experimental systems in vitro) | inhibition of the growth of ALCL cells (ALCL cells [5]; experimental systems in vivo) | activity against ALCL cells (ALCL cells [4]; in vitro) | activity in tumor xenograft models (ALCL cells [5]; tumor xenograft models) | consequence of the inhibition of ALK autophosphorylation in the cells (ALK [6]) | inhibition of ALK autophosphorylation (ALK [6]) | IC50 (human IGF1R (hIGF1R)) [nM] |
| --- | --- | --- | --- | --- | --- | --- | --- | --- | --- | --- | --- | --- | --- |
| COc1cc(N2CCN(C(C)C)CC2)ccc1Nc1nc(Nc2ccc(F)cc2C(N)=O)c2cc[nH]c2n1 [Example 60, 5-fluoro-2-[(2-{[4-[4-(1-methylethyl)-1-piperazinyl]-2-(methyloxy)phenyl]amino}-1H-pyrrolo[2,3-d]pyrimidin-4-yl)amino]benzamide] | 0.251 to 1 | 0.251 to 1 | < 250 | < 250 | < 100 | 100 to 500 | – | – | – | – | – | – | – |
| CCCN1CCC=C(c2ccc(OC)c(Nc3nc(Nc4ccc(F)cc4C(N)=O)c4cc[nH]c4n3)c2)C1 [Example 57, 5-fluoro-2-[(2-{[2-(methyloxy)-5-(1-propyl-1,2,5,6-tetrahydro-3-pyridinyl)phenyl]amino}-1H-pyrrolo[2,3-d]pyrimidin-4-yl)amino]benzamide] | 0.251 to 1 | 0.251 to 1 | < 250 | < 250 | < 100 | < 100 | – | – | – | – | – | – | – |
| C[C@@H](Oc1cc(-c2cnn(C3CCNCC3)c2)cnc1N)c1c(Cl)ccc(F)c1Cl [PF2341066] | – | – | – | – | – | – | inhibit the growth of ALCL cells | inhibit the growth of ALCL cells | – | – | – | – | – |
| 5-chloro-2,4-diaminophenylpyrimidine [NVP-TAE68] | – | – | – | – | – | – | – | – | active against ALCL cells | active | cell cycle arrest and apoptosis | inhibited ALK autophosphorylation | – |
| COc1cc2c(cc1Nc1nc(Nc3cccc(F)c3C(N)=O)c3cc[nH]c3n1)N(C(C)=O)CCC2 [Example 216, 2-[(2-{[1-acetyl-6-(methyloxy)-1,2,3,4-tetrahydro-7-quinolinyl]amino}-1H-pyrrolo[2,3-d]pyrimidin-4-yl)amino]-6-fluorobenzamide] | 5.01 to 158 | – | > 1000 | 250 to 1000 | > 500 | > 500 | – | – | – | – | – | – | 5.01 to 200 |
| COc1cc2c(cc1Nc1nc(Nc3cccc(F)c3C(N)=O)c3c(C)c[nH]c3n1)N(C(=O)CN(C)C)CC2 [Example 259, 2-[(2-{[1-(N,N-dimethylglycyl)-5-(methyloxy)-2,3-dihydro-1H-indol-6-yl]amino}-5-methyl-1H-pyrrolo[2,3-d]pyrimidin-4-yl)amino]-6-fluorobenzamide] | 0.251 to 1 | – | 250 to 1000 | < 250 | 100 to 500 | 100 to 500 | – | – | – | – | – | – | 0.251 to 1 |
| COc1cc(N2CCC(N3CCCCC3)CC2)ccc1Nc1nc(Nc2cccc(F)c2C(N)=O)c2cc[nH]c2n1 [Example 45, 2-[(2-{[4-(1,4′-bipiperidin-1′-yl)-2-(methyloxy)phenyl]amino}-1H-pyrrolo[2,3-d]pyrimidin-4-yl)amino]-6-fluorobenzamide] | 1.26 to 3.98 | – | 250 to 1000 | < 250 | 100 to 500 | 100 to 500 | – | – | – | – | – | – | 1.26 to 3.98 |
